Where “and” joins values, the source holds several entries; their conditions need not be identical. Identical values can stand only once.
Key:
Type in all cases: cell-based
[1] = tested on: normal human epidermal keratinocytes (NHEK); test: Cytotoxicity on NHEK monolayer cultures (MTT reduction assay and morphological observation); conditions: for Viability (%): single values
Procedure: To determine the cytotoxicity of flavonoid-5-O-α-L-rhamnosides tests were performed versus their aglycon derivatives in cell monolayer cultures. For this purpose concentrations ranging from 1 μM to 250 μM were chosen. The viability of normal human epidermal keratinocytes (NHEK) was twice evaluated by a MTT reduction assay and morphological observation with a microscope. NHEK were grown at 37° C. and 5% CO2 aeration in Keratinocyte-SFM medium supplemented with epidermal growth factor (EGF) at 0.25 ng/mL, pituitary extract (PE) at 25 μg/mL and gentamycin (25 μg/mL) for 24 h and were used at the 3rd passage. For cytotoxicity testing, pre-incubated NHEK were given fresh culture medium containing a specific concentration of test compound and incubated for 24 h. After a medium change at same test concentration cells were incubated a further 24 h until viability was determined. Test results are given in Table B2 and illustrated in FIG. 10.

NF-κB = NF-κB activity in NIH3T3-KBF-Luc cells stimulated with TNFα (luciferase); conditions: for % Activation: TNFα alone = 100
Procedure: NIH3T3-KBF-Luc cells were stably transfected with the KBF-Luc plasmid (Sancho (2003) Mol Pharmacol 63:429-438), which contains three copies of NF-κB binding site (from major histocompatibility complex promoter), fused to a minimal simian virus 40 promoter driving the luciferase gene. Cells (1×10^4 for NIH3T3-KBF-Luc) were seeded the day before the assay on 96-well plate. Then the cells were treated with the test substances for 15 min and then stimulated with 30 ng/ml of TNFα. After 6 h, the cells were washed twice with PBS and lysed in 50 μl lysis buffer containing 25 mM Tris-phosphate (pH 7.8), 8 mM MgCl2, 1 mM DTT, 1% Triton X-100, and 7% glycerol during 15 min at RT in a horizontal shaker. Luciferase activity was measured using a GloMax 96 microplate luminometer (Promega) following the instructions of the luciferase assay kit (Promega, Madison, Wis., USA). […] The experiments for each concentration of the test items were done in triplicate wells.

STAT3 = STAT3 activity in HeLa-STAT3-luc cells stimulated with IFN-γ (luciferase); conditions: for Mean: mean of triplicate wells
Procedure: HeLa-STAT3-luc cells were stably transfected with the plasmid 4xM67 pTATA TK-Luc. Cells (20×10^3 cells/ml) were seeded 96-well plate the day before the assay. Then the cells were treated with the test substances for 15 min and then stimulated with IFN-γ 25 IU/ml. After 6 h, the cells were washed twice with PBS and lysed in 50 μl lysis buffer containing 25 mM Tris-phosphate (pH 7.8), 8 mM MgCl2, 1 mM DTT, 1% Triton X-100, and 7% glycerol during 15 min at RT in a horizontal shaker. Luciferase activity was measured using GloMax 96 microplate luminometer (Promega) following the instructions of the luciferase assay kit (Promega, Madison, Wis., USA). […] The experiments for each concentration of the test items were done in triplicate wells.

HaCaT cells = test: Glucose uptake (2-NBDG) in HaCaT keratinocytes; set-up: key to Measure 1 / Measure 2 / Measure 3 / Mean: total green object integrated intensity, GCU×μm2×Well; conditions: +2NBDG 50 μM, 24 h; for Measure 1 / Measure 2 / Measure 3: HaCaT cells, fluorescence; for RFU specific: mean minus control; for Mean: mean of triplicate measurements; for % Glucose uptake: Rosiglitazone 80 μM = 100%
Procedure: HaCaT cells (5×10^4) were seeded in 96-well black plates and incubated for 24 h. Then, medium was removed and the cells cultivated in OptiMEM, labeled with 50 μM 2-NBDG (2-[N-(7-nitrobenz-2-oxa-1,3-diazol-4-yl) amino]-2-deoxy-D-glucose and treated with the test substances or the positive control, Rosiglitazone, for 24 h. Medium was removed and the wells were carefully washed with PBS and incubated in PBS (100l/well). Finally the fluorescence was measured using the Incucyte FLR software, the data were analyzed by the total green object integrated intensity (GCU×μm2×Well) of the imaging system IncuCyte HD (Essen BioScience). The fluorescence of Rosiglitazone is taken as 100% of glucose uptake, and the glucose uptake was calculated as (% Glucose uptake)=100(T−B)/(R−B), where T (treated) is the fluorescence of test substance-treated cells, B (Basal) is the fluorescence of 2-NBDG cells and […] is the fluorescence of cells treated with Rosiglitazone.

Molecule: O=C1CC(c2ccc(O)cc2)Oc2cc(O)cc(O)c21 (stereo not drawn) [Naringenin, 4′,5,7-Trihydroxyflavanone]
- Viability (%) Mean ([1]; 1 μM): 95%
- Viability (%) ([1]; 1 μM): 96% and 95%
- Viability (%) Mean ([1]; 2.5 μM): 93%
- Viability (%) ([1]; 2.5 μM): 95% and 92%
- Viability (%) Mean ([1]; 5 μM): 92%
- Viability (%) ([1]; 5 μM): 93% and 91%
- Viability (%) Mean ([1]; 10 μM): 95%
- Viability (%) ([1]; 10 μM): 95%
- Viability (%) Mean ([1]; 25 μM): 92%
- Viability (%) ([1]; 25 μM): 89% and 94%
- Viability (%) Mean ([1]; 50 μM): 89%
- Viability (%) ([1]; 50 μM): 85% and 94%
- Morph. obs. ([1]; 100 μM): +/−, *
- Viability (%) Mean ([1]; 100 μM): 75%
- Viability (%) ([1]; 100 μM): 76% and 74%
- Morph. obs. ([1]; 250 μM): +/−, *
- Viability (%) Mean ([1]; 250 μM): 47%
- Viability (%) Mean ([1]; 250 μM, listed as naringenin): about 50%
- Viability (%) ([1]; 250 μM): 48% and 47%

Molecule: Diosmetin-5-O-α-L-rhamnoside [DR2]
- RLU 1 (NF-κB; 10 μM + 30 ng/ml TNFα): 211150 RLU
- RLU 2 (NF-κB; 10 μM + 30 ng/ml TNFα): 215320 RLU
- RLU 3 (NF-κB; 10 μM + 30 ng/ml TNFα): 213260 RLU
- RLU MEAN (NF-κB; 10 μM + 30 ng/ml TNFα): 213243 RLU
- RLU specific (NF-κB; 10 μM + 30 ng/ml TNFα): 189880 RLU
- % Activation (NF-κB; 10 μM + 30 ng/ml TNFα): 145.6%
- RLU 1 (NF-κB; 25 μM + 30 ng/ml TNFα): 245900 RLU
- RLU 2 (NF-κB; 25 μM + 30 ng/ml TNFα): 241550 RLU
- RLU 3 (NF-κB; 25 μM + 30 ng/ml TNFα): 234880 RLU
- RLU MEAN (NF-κB; 25 μM + 30 ng/ml TNFα): 240777 RLU
- RLU specific (NF-κB; 25 μM + 30 ng/ml TNFα): 217413 RLU
- % Activation (NF-κB; 25 μM + 30 ng/ml TNFα): 166.7%
- RLU 1 (STAT3; 25 μM test substance, +IFNγ 25 U/ml, HeLa-STAT3-luc cells, replicate well 1): 12137 RLU
- RLU 2 (STAT3; 25 μM test substance, +IFNγ 25 U/ml, HeLa-STAT3-luc cells, replicate well 2): 10269 RLU
- RLU 3 (STAT3; 25 μM test substance, +IFNγ 25 U/ml, HeLa-STAT3-luc cells, replicate well 3): 9275 RLU
- RLU specific (STAT3; 25 μM test substance, +IFNγ 25 U/ml, mean minus control): 8553 RLU
- Mean (STAT3; 25 μM test substance, +IFNγ 25 U/ml): 10560 RLU
- % Activation (STAT3; 25 μM test substance, +IFNγ 25 U/ml, IFNγ alone = 100% activation): 68.33%
- RLU 1 (STAT3; 50 μM test substance, +IFNγ 25 U/ml, HeLa-STAT3-luc cells, replicate well 1): 13005 RLU
- RLU 2 (STAT3; 50 μM test substance, +IFNγ 25 U/ml, HeLa-STAT3-luc cells, replicate well 2): 10547 RLU
- RLU 3 (STAT3; 50 μM test substance, +IFNγ 25 U/ml, HeLa-STAT3-luc cells, replicate well 3): 10143 RLU
- RLU specific (STAT3; 50 μM test substance, +IFNγ 25 U/ml, mean minus control): 9224 RLU
- Mean (STAT3; 50 μM test substance, +IFNγ 25 U/ml): 11232 RLU
- % Activation (STAT3; 50 μM test substance, +IFNγ 25 U/ml, IFNγ alone = 100% activation): 73.69%
- Measure 1 (HaCaT cells; 25 μM test substance): 632398
- Measure 2 (HaCaT cells; 25 μM test substance): 940240
- Measure 3 (HaCaT cells; 25 μM test substance): 197738
- RFU specific (HaCaT cells; 25 μM test substance): 583811 RFU
- Mean (HaCaT cells; 25 μM test substance): 590125
- % Glucose uptake (HaCaT cells; 25 μM test substance): 67.2%
- Measure 1 (HaCaT cells; 50 μM test substance): 2958363
- Measure 2 (HaCaT cells; 50 μM test substance): 1297231
- Measure 3 (HaCaT cells; 50 μM test substance): 2493030
- RFU specific (HaCaT cells; 50 μM test substance): 2243227 RFU
- Mean (HaCaT cells; 50 μM test substance): 2249541
- % Glucose uptake (HaCaT cells; 50 μM test substance): 258.2%

Molecule: Silibinin-5-O-α-L-rhamnoside [SR1]
- RLU 1 (NF-κB; 10 μM + 30 ng/ml TNFα): 269710 RLU
- RLU 2 (NF-κB; 10 μM + 30 ng/ml TNFα): 262180 RLU
- RLU 3 (NF-κB; 10 μM + 30 ng/ml TNFα): 254090 RLU
- RLU MEAN (NF-κB; 10 μM + 30 ng/ml TNFα): 261993 RLU
- RLU specific (NF-κB; 10 μM + 30 ng/ml TNFα): 229147 RLU
- % Activation (NF-κB; 10 μM + 30 ng/ml TNFα): 154.8%
- RLU 2 (NF-κB; 25 μM + 30 ng/ml TNFα): 171280 RLU
- RLU 3 (NF-κB; 25 μM + 30 ng/ml TNFα): 171730 RLU
- RLU MEAN (NF-κB; 25 μM + 30 ng/ml TNFα): 172650 RLU
- RLU specific (NF-κB; 25 μM + 30 ng/ml TNFα): 139803 RLU
- % Activation (NF-κB; 25 μM + 30 ng/ml TNFα): 94.4%
- RLU 1 (STAT3; 25 μM + IFNγ 25 U/ml): 9507 RLU
- RLU 2 (STAT3; 25 μM + IFNγ 25 U/ml): 11653 RLU
- RLU 3 (STAT3; 25 μM + IFNγ 25 U/ml): 10203 RLU
- RLU MEAN (STAT3; 25 μM + IFNγ 25 U/ml): 10454 RLU
- RLU specific (STAT3; 25 μM + IFNγ 25 U/ml): 8447 RLU
- % Activation (STAT3; 25 μM + IFNγ 25 U/ml, IFNγ alone = 100): 92.24%
- RLU 1 (STAT3; 50 μM + IFNγ 25 U/ml): 10090 RLU
- RLU 2 (STAT3; 50 μM + IFNγ 25 U/ml): 11355 RLU
- RLU 3 (STAT3; 50 μM + IFNγ 25 U/ml): 10938 RLU
- RLU MEAN (STAT3; 50 μM + IFNγ 25 U/ml): 10794 RLU
- RLU specific (STAT3; 50 μM + IFNγ 25 U/ml): 8787 RLU
- % Activation (STAT3; 50 μM + IFNγ 25 U/ml, IFNγ alone = 100): 95.95%
